In US10174013B2, “Benzimidazole derivatives as kinase inhibitors” (SELVITA S.A., priority 2012, dated 2019):
Where a name gives a salt, the structure may show the parent alone. Read-outs that look alike come from different tables or passages of the source.

Key:
CDK2/E = CDK2/E (Homo sapiens (Human), UniProt P24941); experiment: ADP-Glo Kinase Assay, CDK2/E; assay type: biochemical; settings: 1 μM compound; for inhibition at 1 µM: read-out: CDK2/E % INH (1 μM)
Method: (§1) Compounds of the present invention were tested for their inhibitory activity against Pim-1, Pim-2, Pim-3, Flt3 wt, Flt3 ITD, CDK2/E and DYRK1. The testing of the compounds was carried out using the ADP-Glo™ Kinase Assay from Promega Corporation (Madison, Wis., USA).
(§2) The ADP-Glo™ Kinase Assay is a luminescent ADP detection assay to measure kinase activity by quantifying the amount of ADP produced during a kinase reaction. The kinase assay is performed in kinase assay buffer (5 mM MOPS, pH 7.5, 5 mM MgCl2, 0.4 mM EDTA, 1.5 mM DTT). Test samples initially dissolved in DMSO at 10 mM were diluted with the assay buffer to 1000 nM. A 30 μL volume/well of a mixture of substrates containing ATP (final ATP concentration in each kinase assay was equal to its apparent ATP Km).
(§3) The assay was performed in two steps: first, after the kinase reaction, an equal volume of ADP-Glo™ Reagent was added to terminate the kinase reaction and deplete the remaining ATP. Second, the Kinase Detection Reagent was added to simultaneously convert ADP to ATP and allowed the newly synthesized ATP to be measured using a luciferase/luciferin reaction. The luminescent signal generated was proportional to the ADP concentration produced and was correlated with kinase activity. A microplate spectrophotometer (Synergy 2 multi-mode microplate reader [BioTek]) was used for detecting the luminescence. The data was normalized and the percent of inhibition was obtained according to the following equation: […]

DYRK1 = DYRK1 (Homo sapiens (Human), UniProt Q13627); experiment: ADP-Glo Kinase Assay, DYRK1; assay type: biochemical; settings: 1 μM compound; for inhibition at 1 µM: read-out: DYRK1A % INH (1 μM)
Method: as §1, §2, §3

Pim-2 = Pim-2 (Homo sapiens (Human), UniProt Q9P1W9); experiment: ADP-Glo Kinase Assay, Pim-2; assay type: biochemical; settings: 1 μM compound; for inhibition at 1 µM: read-out: Pim-2 % INH (1 μM)
Method: as §1, §2, §3

Pim-3 = Pim-3 (Homo sapiens (Human), UniProt Q86V86); experiment: ADP-Glo Kinase Assay, Pim-3; assay type: biochemical; settings: 1 μM compound; for inhibition at 1 µM: read-out: Pim-3 % INH (1 μM)
Method: as §1, §2, §3

HepG2 cells = experiment: Growth inhibition, MTS assay, HepG2; assay type: cell-based, Human; settings: MTS cell viability, read-out: HepG2 ED50
From the text: (§4) The following cell lines, were obtained and used in tests as outlined below: • Human myelomonocytic, biphenotypic leukemia MV4-11 cells (harboring a Flt3-ITD mutation); • Human Acute Myeloid Leukemia MOLM16 cells; • Human Acute Myeloid Leukemia MOLM13 cells (harboring a Flt3-ITD mutation); • Human Myeloid Leukemia KG-1 cells; • Human erythroleukemia HEL92 cells; • Human mantle cell lymphoma Jeko-1 cells; • Human hepatocellular carcinoma HepG2 cells; and • Human colon adenocarcinoma SW-480 cells.
(§5) The assays were carried out according to the following protocol, which is described as an example for the MV4-11 cells:
(§6) Ten thousand MV4-11 cells were inoculated into each well of a 96-well microplate (manufactured by Corning Corp.) using Iscove's MDM medium (culture medium) containing 10% fetal calf serum (FCS). The same day, a dimethyl sulfoxide (DMSO) solution of each test compound prepared in a concentration of 10 mmol/L was further diluted with DMSO to the desired concentrations (0.1, 0.5, 1, 2.5, 5 and 10 micromol/L), and the diluted solution was added to each well. The individual wells were further cultured in 5% carbon dioxide at 37° C. for 72 hours. […] Briefly, 10 μl MTS (3-(4,5-Dimethyl-2-thiazolyl)-5-(carboxymethoxyphenyl)-2-(4-sulfophenyl)-2H-tetrazolium was added to each well, and culturing was performed in 5% carbon dioxide at 37° C. for 2 hours. After this incubation and using a microplate spectrophotometer (Synergy 2 multi-mode microplate reader (BioTek)), the absorbance of each well was measured at 490 nm. The value for cells not incubated with a test compound was designated as 100%. By comparing these values with the absorbance difference obtained at the well in which each test compound was added, the cell viability (% viability) after treatment with the test compound was calculated.

HEL92 cells = experiment: Growth inhibition, MTS assay, HEL92; assay type: cell-based, Human; settings: MTS cell viability, read-out: HEL92 ED50
From the text: as §4, §5, §6

FLT3wt = FLT3wt (Homo sapiens (Human), UniProt P36888); experiment: ADP-Glo Kinase Assay, Flt3 wt; assay type: biochemical; settings: 1 μM compound; for inhibition at 1 µM: read-out: Flt3wt % INH (1 μM)
Method: as §1, §2, §3

Pim-1 = Pim-1 (Homo sapiens (Human), UniProt P11309); experiment: ADP-Glo Kinase Assay, Pim-1; assay type: biochemical; settings: 1 μM compound; for inhibition at 1 µM: read-out: Pim-1 % INH (1 μM)
Method: as §1, §2, §3

MV4-11 cells = experiment: Growth inhibition, MTS assay, MV4-11; assay type: cell-based, Human; settings: MTS cell viability, read-out: MV4-11 ED50
From the text: as §4, §5, §6

SW-480 cells = experiment: Growth inhibition, MTS assay, SW-480; assay type: cell-based, Human; settings: 72 hours, MTS cell viability, read-out: SW-480 ED50
From the text: as §4, §5, §6

Sequence of Pim-1 (P11309 whole entry): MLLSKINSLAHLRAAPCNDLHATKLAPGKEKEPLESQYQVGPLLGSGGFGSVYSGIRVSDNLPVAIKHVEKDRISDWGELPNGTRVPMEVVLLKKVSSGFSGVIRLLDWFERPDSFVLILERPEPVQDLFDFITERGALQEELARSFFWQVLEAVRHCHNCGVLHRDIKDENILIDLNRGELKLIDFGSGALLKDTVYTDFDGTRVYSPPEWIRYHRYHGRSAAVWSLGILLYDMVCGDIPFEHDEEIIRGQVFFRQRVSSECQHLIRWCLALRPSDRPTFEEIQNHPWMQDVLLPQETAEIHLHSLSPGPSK
Sequence of FLT3wt (P36888 27-993): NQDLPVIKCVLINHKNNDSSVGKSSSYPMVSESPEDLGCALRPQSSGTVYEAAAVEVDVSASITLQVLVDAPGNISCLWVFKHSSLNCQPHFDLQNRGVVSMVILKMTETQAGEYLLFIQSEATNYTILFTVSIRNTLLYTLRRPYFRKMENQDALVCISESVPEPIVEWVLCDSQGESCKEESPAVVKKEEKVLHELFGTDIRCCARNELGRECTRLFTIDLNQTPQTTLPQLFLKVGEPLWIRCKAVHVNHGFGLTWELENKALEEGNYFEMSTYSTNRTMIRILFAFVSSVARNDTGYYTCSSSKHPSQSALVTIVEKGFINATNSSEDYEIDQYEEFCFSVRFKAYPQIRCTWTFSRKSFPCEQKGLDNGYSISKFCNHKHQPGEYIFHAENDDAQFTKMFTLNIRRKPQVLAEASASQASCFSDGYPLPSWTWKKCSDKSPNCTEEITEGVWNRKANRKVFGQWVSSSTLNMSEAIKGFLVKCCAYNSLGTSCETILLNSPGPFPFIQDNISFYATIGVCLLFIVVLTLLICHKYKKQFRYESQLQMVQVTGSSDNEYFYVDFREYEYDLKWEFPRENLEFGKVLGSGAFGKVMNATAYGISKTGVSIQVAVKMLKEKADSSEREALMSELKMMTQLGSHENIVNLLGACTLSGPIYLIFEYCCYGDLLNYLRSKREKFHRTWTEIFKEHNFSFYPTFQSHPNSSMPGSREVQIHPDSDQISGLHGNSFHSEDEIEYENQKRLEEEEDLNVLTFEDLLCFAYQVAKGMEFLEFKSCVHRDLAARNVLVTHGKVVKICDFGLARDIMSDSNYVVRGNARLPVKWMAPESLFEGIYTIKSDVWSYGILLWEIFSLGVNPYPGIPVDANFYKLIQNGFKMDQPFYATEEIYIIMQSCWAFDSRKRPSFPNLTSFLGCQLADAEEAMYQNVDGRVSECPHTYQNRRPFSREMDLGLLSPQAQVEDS
Sequence of Pim-2 (Q9P1W9 whole entry): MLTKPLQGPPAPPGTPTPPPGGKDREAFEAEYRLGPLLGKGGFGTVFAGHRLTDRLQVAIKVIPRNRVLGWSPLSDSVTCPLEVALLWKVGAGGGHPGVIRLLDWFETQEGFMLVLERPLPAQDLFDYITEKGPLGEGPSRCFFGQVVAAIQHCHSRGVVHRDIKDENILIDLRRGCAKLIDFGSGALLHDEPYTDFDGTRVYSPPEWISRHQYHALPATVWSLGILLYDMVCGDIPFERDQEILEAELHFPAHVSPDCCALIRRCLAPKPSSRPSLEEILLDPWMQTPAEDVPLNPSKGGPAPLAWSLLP

| Compound | inhibition at 1 µM (CDK2/E) [%] | inhibition at 1 µM (DYRK1) [%] | inhibition at 1 µM (Pim-2) [%] | inhibition at 1 µM (Pim-3) [%] | IC50 (HepG2 cells; Homo sapiens, HepG2, 72 h) [nM] | IC50 (HEL92 cells; Homo sapiens, 72 h) [nM] | inhibition at 1 µM (FLT3wt) [%] | inhibition at 1 µM (Pim-1) [%] | IC50 (MV4-11 cells; Homo sapiens, MV4-11, 72 h) [nM] | CDK2/E % INH (1 μM) (CDK2/E) [%] | DYRK1A % INH (1 μM) (DYRK1) [%] | Pim-2 % INH (1 μM) (Pim-2) [%] | Pim-3 % INH (1 μM) (Pim-3) [%] | IC50 (HepG2 cells; 72 hours) [nM] | Flt3wt % INH (1 μM) (FLT3wt) [%] | Pim-1 % INH (1 μM) (Pim-1) [%] | IC50 (MV4-11 cells; 72 hours) [nM] | IC50 (HEL92 cells; 72 hours) [nM] | IC50 (SW-480 cells; Homo sapiens, SW480) [nM] | IC50 (SW-480 cells) [nM] |
| --- | --- | --- | --- | --- | --- | --- | --- | --- | --- | --- | --- | --- | --- | --- | --- | --- | --- | --- | --- | --- |
| CC(C)n1c(NC2CCNC2)nc2c([N+](=O)[O-])c(Br)c(Br)cc21 (stereo not drawn) [Example 1BA] | 6 | 52 | 51 | 82 | 1900 | 6900 | 15 | > 95 | 1100 | – | – | – | – | – | – | – | – | – | – | – |
| CC(O)Cn1c(N2CCNCC2)nc2c([N+](=O)[O-])c(Br)c(Br)cc21 (stereo not drawn) [Example 1BS] | 21 | 66 | 21 | 48 | 3600 | 4600 | 39 | > 95 | 900 | – | – | – | – | – | – | – | – | – | – | – |
| CC(C)n1c(NC2CCCNC2)nc2c(C#N)c(Br)c(Br)cc21 (stereo not drawn) [Example 1BT] | 26 | 22 | 16 | 56 | 1200 | 5700 | 23 | 70 | 500 | – | – | – | – | – | – | – | – | – | – | – |
| CC(C)n1c(N2CCC[C@H](N)C2)nc2c(C#N)c(Br)c(Br)cc21 [Example 1BV] | – | – | – | – | – | 5300 | – | – | – | 11 | 80 | 82 | 91 | 2900 | 39 | >95 | 5100 | – | – | – |
| O=[N+]([O-])c1c(Br)c(Br)cc2c1nc(N[C@@H]1CCCNC1)n2CC1CC1 [Example 1CH] | – | – | – | – | – | – | – | – | – | 9 | 14 | 10 | 32 | 2200 | 17 | 82 | 5000 | 5700 | – | – |
| O=[N+]([O-])c1c(Br)c(Br)cc2c1nc(N[C@H]1CCNC1)n2CC1CC1 [Example 1CI] | – | – | – | – | – | – | – | – | – | 10 | 57 | 64 | 75 | 1400 | 19 | >95 | 1600 | 6100 | – | – |
| CCn1c(NCCCN)nc2c([N+](=O)[O-])c(Br)c(Br)cc21 [Example 1C] | < 5 | – | 28 | 70 | 4100 | > 10000 | < 5 | 85 | 3100 | – | – | – | – | – | – | – | – | – | 7400 | – |
| O=[N+]([O-])c1c(Br)c(Br)cc2[nH]c(N3CCNCC3)nc12 [Example 1E] | – | – | – | – | 6800 | – | – | – | 3300 | – | – | – | – | – | – | – | – | – | 8100 | – |
| CCn1c(N2CCC(N)CC2)nc2c([N+](=O)[O-])c(Br)c(Br)cc21 [Example 1I] | – | – | – | – | – | – | – | – | – | – | – | – | – | 4300 | – | – | 5100 | – | – | 5600 |
| C#CCn1c(N2CCNCC2)nc2c([N+](=O)[O-])c(Br)c(Br)cc21 [Example 2B, 5,6-dibromo-4-nitro-2-(piperazin-1-yl)-1-(prop-2-yn-1-yl)-1H-1,3-benzodiazole hydrochloride] | < 5 | 61 | – | – | 1400 | 6700 | < 5 | 53 | 3100 | – | – | – | – | – | – | – | – | – | 5500 | – |
| O=[N+]([O-])c1c(Br)c(Br)cc2c1nc(N1CCNCC1)n2CC1CCC1 [Example 2F, 5,6-dibromo-1-(cyclobutylmethyl)-4-nitro-2-(piperazin-1-yl)-1H-1,3-benzodiazole hydrochloride] | 15 | > 95 | 70 | 89 | 1800 | 2100 | 78 | > 95 | 300 | – | – | – | – | – | – | – | – | – | – | – |
| C#CCn1c(NCCCN)nc2c([N+](=O)[O-])c(Br)c(Br)cc21 [Example 2G, N-(3-aminopropyl)-5,6-dibromo-4-nitro-1-(prop-2-yn-1-yl)-1H-1,3-benzodiazol-2-amine hydrochloride] | < 5 | 25 | – | 34 | 1300 | 6000 | 10 | 71 | 2300 | – | – | – | – | – | – | – | – | – | 3100 | – |
| CC(C)n1c(N2CCN[C@H](C)C2)nc2c([N+](=O)[O-])c(Br)c(Br)cc21 [Example 22AA, 5,6-dibromo-2-[(3R)-3-methylpiperazin-1-yl]-4-nitro-1-(propan-2-yl)-1H-1,3-benzodiazole] | 11 | 43 | 36 | 88 | 1800 | 1200 | 49 | > 95 | 500 | – | – | – | – | – | – | – | – | – | – | – |
| CCn1c(NCC2CCN(CCN(C)C)C2)nc2c([N+](=O)[O-])c(Br)c(Br)cc21 (stereo not drawn) [Example 22O, 5,6-dibromo-N-({1-[2-(dimethylamino)ethyl]pyrrolidin-3-yl}methyl)-1-ethyl-4-nitro-1H-1,3-benzodiazol-2-amine] | – | – | – | – | 1400 | 2500 | – | – | 2800 | – | – | – | – | – | – | – | – | – | 1400 | – |
| CCn1c(NCCCN2CCCC2)nc2c([N+](=O)[O-])c(Br)c(Br)cc21 [Example 22P, 5,6-dibromo-1-ethyl-4-nitro-N-[3-(pyrrolidin-1-yl)propyl]-1H-1,3-benzodiazol-2-amine] | – | – | – | – | 2700 | 5900 | – | – | 2900 | – | – | – | – | – | – | – | – | – | 2500 | – |
| CCn1c(N2CCNC(C)(C)C2)nc2c([N+](=O)[O-])c(Br)c(Br)cc21 [Example 22W, 5,6-dibromo-2-(3,3-dimethylpiperazin-1-yl)-1-ethyl-4-nitro-1H-1,3-benzodiazole] | < 5 | – | – | 57 | 1500 | 9500 | < 5 | 80 | 1700 | – | – | – | – | – | – | – | – | – | 4900 | – |
| CCn1c(N2CCNC(C)C2)nc2c([N+](=O)[O-])c(Br)c(Br)cc21 (stereo not drawn) [Example 22X, 5,6-dibromo-1-ethyl-2-(3-methylpiperazin-1-yl)-4-nitro-1H-1,3-benzodiazole] | < 5 | 39 | – | 56 | 2300 | 8700 | < 5 | 74 | 700 | – | – | – | – | – | – | – | – | – | 5000 | – |
